Data reported in publication PMC5931107, “Clinical pharmacodynamic/exposure characterisation of the multikinase inhibitor ilorasertib (ABT-348) in a phase 1 dose-escalation trial” (British Journal of Cancer, 2018).
Marks after values point to notes of the source that are not given here.

Legend:
[1] = test system: VEGFR3; set-up: method as in PMID 22935731; details: read-out: Cellular PD marker IC50 (95% confidence limits); cited from earlier work
[2] = test system: PDGFR-α; set-up: method as in PMID 22935731; details: 1 mM ATP; read-out: Biochemical IC50 (95% confidence limits); cited from earlier work
[3] = test system: VEGFR2; set-up: method as in PMID 22935731; details: cited from earlier work
[4] = Plasma pharmacokinetics, Arm I (oral QD), phase 1 trial; format: in vivo, human; details: for AUC(0-t): AUCt
Method: Pharmacokinetics of ilorasertib were evaluated in the dose-escalation cohort on blood samples that were collected on cycle 1 days 1 and 15. Parameters determined: Cmax, time to Cmax (Tmax), terminal phase elimination half-life (t1/2), clearance, apparent oral clearance (CL/F), and area under the plasma concentration-time curve from time 0 to time of last measurable concentration (AUCt) and from time 0 to infinity (AUC∞). For Arm I, blood samples were collected prior to dosing and at 0.5, 1, 2, 3, 4, 6, 8, 10 or 12, and 24 h after dosing on cycle 1 days 1 and 15; of note, for institutions not able to collect the 10- or 12-h post-dose sample, the 24-h sample was replaced with 22-h and 28-h post-dose samples. In Arm II, for the first dose, blood samples were collected pre-dose and at 1, 2, 3, and 4 h post-dose on cycle 1 days 1 and 15; for the second dose, samples were collected pre-dose and at 1, 2, 3, 4, 18, and 24 h after second dose on cycle 1 days 1 and 15. In Arm III, blood samples were collected prior to infusion, at 1 h 55 min (just before end of infusion), and at 0.5, 1, 2, 4, 6, 8, 10, and 24 h after end of infusion on cycle 1 days 1 and 15; here also, for institutions not able to collect the 8-h or 10-h after-end-of-infusion samples, the 24-h sample was replaced with 22-h and 28-h post-dose samples. The liquid chromatography (LC)-mass spectrometry (MS)/MS method was developed and validated in the Bioanalysis Department of AbbVie. Fifty microliter of human plasma (K2EDTA as anticoagulant) was fortified with 300 μL of deuterium-stable labelled internal standard and mixed well. A HybridSPE precipitation plate (50 mg/96 wells, Supelco Analytical, Munich, Germany) was used to directly load and elute (under slight vacuum) the fortified samples into a clean collection plate. Samples were dried before reconstitution with 100 μL of 20/80 (v/v) acetonitrile/water, and injected for LC-MS/MS analysis. A Halo C8 (Wilmington, DE, USA; 2.7 μm, 2.1 × 30 mm) was used on an Agilent 1290 Infinity UPLC pump (Agilent Technologies, Santa Clara, CA) to carry out the separation. An isocratic condition with 25/75/0.1 (v/v/v) acetonitrile/water/98% formic acid was used as the mobile phase. The flow rate was set to be 0.6 mL/min. An MPS 3 C ([…] Ruhr, Germany) autosampler was used to introduce samples onto the UPLC system. An API 4000 mass spectrometer (Applied Biosystems, Foster City, CA) was used in the multiple reactions monitoring mode for the detection and quantitation of analyte. Descriptive statistics were used for demographic variables. The numbers and percentages of patients with treatment-emergent AEs (TEAEs) were tabulated using the Medical Dictionary for Regulatory Activities version 16.0 system organ class and preferred term, and further classified according to CTCAE version 4.0 criteria. The safety data set included all patients who received one or more doses of ilorasertib. The pharmacokinetic data set included all patients who received one or more doses of ilorasertib and had one or more pharmacokinetic samples. Values for pharmacokinetic parameters were determined using non-compartmental methods, with data analysed separately for each arm. A repeated measures analysis was performed for Tmax and dose-normalised Cmax, AUCt, and AUC∞. The model included random effects for patient and fixed effects for dose level, day, and the interaction of dose level and day. To assess effects of exposure on pharmacodynamic biomarkers, Cmax was employed as the directly measured marker of exposure for the rapid changes in DBP and PlGF pre-steady-state, while AUC∞ reflected exposure variability at the time of post-multiple-dose skin biopsy. Descriptive statistics were used to summarise ECOG performance status. The efficacy data set included all patients who received one or more doses of ilorasertib.

[5] = set-up: method as in PMID 25933833; details: doses above 80 mg PO; data from haematologic malignancies study i.v. arm; cited from earlier work
[6] = test system: Aurora B; set-up: method as in PMID 22935731; details: 1 mM ATP; read-out: Biochemical IC50 (95% confidence limits); cited from earlier work
[7] = test system: PDGFR-β; set-up: method as in PMID 22935731; details: 1 mM ATP; read-out: Biochemical IC50 (95% confidence limits); cited from earlier work

Q: What does the source list for `Nc1ncc(-c2cnn(CCO)c2)c2scc(-c3ccc(NC(=O)Nc4cccc(F)c4)cc3)c12` [ilorasertib, Ilorasertib]?
A: IC50 [1]: 2 nM; IC50 [2]: 11 nM; IC50 ([3]; VEGFR2 cellular phosphorylation, ligand stimulated, read-out: Cellular PD marker IC50 (95% confidence limits)): 5 nM; Potency of VEGFR2 inhibition relative to Aurora kinase B ([3]; cellular assays): two- to five-fold more potent; t1/2 (harmonic mean) ([4]; Arm I PO QD all doses, day 1, N=21): 12.2 ± 6.9^d h; half-life ([4]; human, in vivo, Mean t1/2): ~12 h; Tmax ([4]; human, in vivo, Time of peak plasma concentration): ~4 h; Dose proportionality of exposure (Cmax and AUC) ([4]; human, in vivo, iv): approximately dose proportional; t1/2 (harmonic mean) ([4]; human, in vivo, po, 10 mg): […]; half-life ([4]; human, in vivo, po, 10 mg, t1/2 (harmonic mean)): 11.7 ± 1.4 h; AUCt ([4]; human, in vivo, po, 20 mg): 1.76 (3.23, 0.29) μg•h/mL; AUC∞ ([4]; human, in vivo, po, 20 mg): 1.46 (2.41, 0.51) μg•h/mL; Cmax ([4]; human, in vivo, po, 20 mg): 0.08 (0.14, 0.02) μg/mL; Tmax ([4]; human, in vivo, po, 20 mg): 5.0 (4.0, 6.0) h; AUC(0-t) ([4]; human, in vivo, po, 20 mg): 1010 ng·h/mL; AUC(0-inf) ([4]; human, in vivo, po, 20 mg): 2260 ng·h/mL; Cmax ([4]; human, in vivo, po, 20 mg, Cmax): […]; Tmax ([4]; human, in vivo, po, 20 mg, Tmax): 5 h; AUCt ([4]; human, in vivo, po, 40 mg): 1.15 µg·h/mL; AUC∞/dose ([4]; human, in vivo, po, 40 mg): 41.0 ng·h/mL/mg; CL/F ([4]; human, in vivo, po, 40 mg): 24.4 L/h; AUC(0-t) ([4]; human, in vivo, po, 40 mg): 640 ng·h/mL; AUC(0-inf) ([4]; human, in vivo, po, 40 mg): 1640 ng·h/mL; Tmax ([4]; human, in vivo, po, 40 mg, Tmax): 8 h; half-life ([4]; human, in vivo, po, 40 mg, t1/2 (harmonic mean)): 11.5 h; AUCt ([4]; human, in vivo, po, 80 mg): 1.59 ± 1.04 µg·h/mL; AUC∞ ([4]; human, in vivo, po, 80 mg): 2.75 ± 2.15 µg·h/mL; Cmax ([4]; human, in vivo, po, 80 mg): […]; t1/2 (harmonic mean) ([4]; human, in vivo, po, 80 mg): 16.8 ± 2.8 h; AUC(0-t) ([4]; human, in vivo, po, 80 mg): 1900 ± 1100 ng·h/mL; AUC(0-inf) ([4]; human, in vivo, po, 80 mg): 2820 ± 1540 ng·h/mL; Cmax ([4]; human, in vivo, po, 80 mg, Cmax): 220 ± 100 ng/mL; Tmax ([4]; human, in vivo, po, 80 mg, Tmax): 4 ± 2 h; half-life ([4]; human, in vivo, po, 80 mg, t1/2 (harmonic mean)): 16 ± 1.8 h; AUCt ([4]; human, in vivo, po, 120 mg): 2.25 ± 0.61 µg·h/mL; AUC∞ ([4]; human, in vivo, po, 120 mg): 4.31 ± 2.38^c μg•h/mL; Cmax ([4]; human, in vivo, po, 120 mg): 250 ± 140 ng/mL; Tmax ([4]; human, in vivo, po, 120 mg): 4.1 ± 2.2 h; AUC(0-t) ([4]; human, in vivo, po, 120 mg): 3600 ± 2500 ng·h/mL; AUC(0-inf) ([4]; human, in vivo, po, 120 mg): 5400 ± 2620 ng·h/mL; Cmax ([4]; human, in vivo, po, 120 mg, Cmax): 490 ± 330 ng/mL; Tmax ([4]; human, in vivo, po, 120 mg, Tmax): 3.8 ± 2.2 h; AUC∞ ([4]; human, in vivo, po, 140 mg): 4.13 (4.96, 3.31)^a μg•h/mL; Cmax ([4]; human, in vivo, po, 140 mg): 330 ± 190 ng/mL; Tmax ([4]; human, in vivo, po, 140 mg): 10.1 ± 12.3 h; t1/2 (harmonic mean) ([4]; human, in vivo, po, 140 mg): 15.8 ± 23.6 h; AUC(0-inf) ([4]; human, in vivo, po, 140 mg): 5400 ± 1800 ng·h/mL; Cmax ([4]; human, in vivo, po, 140 mg, Cmax): 240 ± 130 ng/mL; half-life ([4]; human, in vivo, po, 140 mg, t1/2 (harmonic mean)): 10.1 h; Tmax ([4]; human, in vivo, po, 180 mg): 2.0 h; t1/2 (harmonic mean) ([4]; human, in vivo, po, 180 mg): 11.6 h; Tmax ([4]; human, in vivo, po, 180 mg, Tmax): 4 ± 2 h; half-life ([4]; human, in vivo, po, 180 mg, t1/2 (harmonic mean)): 9.5 ± 2.7 h; Tmax ([4]; human, in vivo, po, Tmax): 4.2 ± 1.8 h; half-life ([4]; human, in vivo, po, t1/2 (harmonic mean)): 14 ± 4 h; Absolute oral bioavailability (estimate) [5]: […]; IC50 [6]: […]; IC50 [7]: […]
